Measured values as given in US4572908A, “Dihydropyridines” (Pfizer Inc., priority 1982, dated 1986).

System: rat aorta
Experiment: inhibition of calcium-induced contraction (change in tension) of spirally cut strips of rat aorta in K+ 45 mM saline
Format: cell-based
Conditions: 0.75 h, 45 millimolar potassium, 2 millimolar calcium, 45 minutes, read-out: IC50 (molar concentration required to reduce the response by 50%)
Experimental: The ability of the compounds to inhibit the movement of calcium into the cell is shown by their effectiveness in reducing the response of isolated heart tissue to an increase in calcium ion concentration in vitro. The test is performed by mounting spirally cut strips of rat aorta with one end fixed and the other attached to a force transducer. The tissue is immersed in a bath of physiological saline solution containing potassium ions at a concentration of 45 millimolar and no calcium. Calcium chloride is added to the bath with a pipette to give a final calcium ion concentration of 2 millimolar. The change in tension caused by the resulting contraction of the tissue is noted. The bath is drained and replaced with fresh saline solution and, after 45 minutes, the test is repeated with the particular compound under test present in the saline solution. The concentration of compound required to reduce the response by 50% (IC50) is recorded.
The molar concentrations of the compounds required to reduce the response by 50% in the test specified on pages 16-17 are given below (1M=1 gm.Mole/liter).

SMILES	IC50 [nM]
CCOC(=O)C1=C(COCCNc2nc(N)n[nH]2)NC(C)=C(C(=O)OC)C1c1ccccc1Cl (centres unmarked) [Example 1B, 2-[2-(3-Amino-1H-1,2,4-triazol-5-ylamino)ethoxymethyl]-4-(2-chlorophenyl)-3-ethoxycarbonyl-5-methoxycarbonyl-6-methyl-1,4-dihydropyridine]	20
CCOC(=O)C1=C(COCCNc2nc(N)n[nH]2)NC(C)=C(C(=O)OC)C1c1cccc(C(F)(F)F)c1Cl (centres unmarked) [Example 2, 2-[2-(3-Amino-1H-1,2,4-triazol-5-ylamino)ethoxymethyl]-4-(2-chloro-3-trifluoromethylphenyl)-3-ethoxycarbonyl-5-methoxycarbonyl-6-methyl-1,4-dihydropyridine]	2.29
CCOC(=O)C1=C(COCCNc2nnc(N)[nH]2)NC(C)=C(C(=O)OC)C1c1cccc(Cl)c1Cl (centres unmarked) [Example 3B]	6.02
CCOC(=O)C1=C(COCCNc2nc(N)n(C)n2)NC(C)=C(C(=O)OC)C1c1ccccc1Cl (centres unmarked) [Example 4]	8.12
CCOC(=O)C1=C(COCCNc2nc(N)n(C)n2)NC(C)=C(C(=O)OC)C1c1cccc(Cl)c1Cl (centres unmarked) [Example 5]	3.02
CCOC(=O)C1=C(COCCNc2noc(N)n2)NC(C)=C(C(=O)OC)C1c1ccccc1Cl (centres unmarked) [Example 6, 2-[2-(5-Amino-1,2,4-oxadiazol-3-ylamino)ethoxymethyl]-4-(2-chlorophenyl)-3-ethoxycarbonyl-5-methoxycarbonyl-6-methyl-1,4-dihydropyridine]	11.5
CCOC(=O)C1=C(COCCNc2nccc(=O)[nH]2)NC(C)=C(C(=O)OC)C1c1ccccc1Cl (centres unmarked) [Example 8, 4-(2-Chlorophenyl)-3-ethoxycarbonyl-5-methoxycarbonyl-6-methyl-2-[2-(3,4-dihydro-4-oxo-pyrimidin-2-ylamino)ethoxymethyl]-1,4-dihydropyridine]	10.5
CCOC(=O)C1=C(COCCNC2=NCC(=O)N2)NC(C)=C(C(=O)OC)C1c1ccccc1Cl (centres unmarked) [Example 9]	12.6
CCOC(=O)C1=C(COCCNc2nc(N)nc(N)n2)NC(C)=C(C(=O)OC)C1c1ccccc1Cl (centres unmarked) [Example 11]	426
CCOC(=O)C1=C(COCCNc2cc[nH]c(=O)n2)NC(C)=C(C(=O)OC)C1c1ccccc1Cl (centres unmarked) [Example 12]	28.8
CCOC(=O)C1=C(COCCNc2cc(=O)[nH]cn2)NC(C)=C(C(=O)OC)C1c1ccccc1Cl (centres unmarked) [Example 14]	10
CCOC(=O)C1=C(COCCNc2ncnc3[nH]cnc23)NC(C)=C(C(=O)OC)C1c1ccccc1Cl (centres unmarked) [Example 16]	100
CCOC(=O)C1=C(COCCNc2nc3cc(OC)c(OC)cc3c(=O)[nH]2)NC(C)=C(C(=O)OC)C1c1ccccc1Cl (centres unmarked) [Example 17]	13.1
CCOC(=O)C1=C(COCCNc2ccnc(Cl)n2)NC(C)=C(C(=O)OC)C1c1ccccc1Cl (centres unmarked) [Example 18]	31.6
CCOC(=O)C1=C(COCCNc2nc3ccccc3s2)NC(C)=C(C(=O)OC)C1c1ccccc1Cl (centres unmarked) [Example 19]	10
CCOC(=O)C1=C(COCCNC2=NCCC2)NC(C)=C(C(=O)OC)C1c1ccccc1Cl (centres unmarked) [Example 20]	100
CCOC(=O)C1=C(COCCNC2=NCCN2)NC(C)=C(C(=O)OC)C1c1ccccc1Cl (centres unmarked) [Example 21]	100
CCOC(=O)C1=C(COCCNc2ccc(C(N)=O)cn2)NC(C)=C(C(=O)OC)C1c1ccccc1Cl (centres unmarked) [Example 22]	18.2
CCOC(=O)C1=C(COCCNC2=NC(C)(C)C(=O)N2)NC(C)=C(C(=O)OC)C1c1ccccc1Cl (centres unmarked) [Example 23]	100
CCOC(=O)C1=C(COCCNc2nc(C)cc(=O)[nH]2)NC(C)=C(C(=O)OC)C1c1ccccc1Cl (centres unmarked) [Example 24]	10

SMILES	IC50 [nM]
CCOC(=O)C1=C(COCCNc2nccc(N)n2)NC(C)=C(C(=O)OC)C1c1ccccc1Cl (centres unmarked) [Example 27]	3.98
CCOC(=O)C1=C(COCCNc2nccc(C(N)=O)n2)NC(C)=C(C(=O)OC)C1c1ccccc1Cl (centres unmarked) [Example 29]	18.1
CCOC(=O)C1=C(COCCNc2nccnc2Cl)NC(C)=C(C(=O)OC)C1c1ccccc1Cl (centres unmarked) [Example 32]	15.8
CCOC(=O)C1=C(COCCNc2ccc(S(N)(=O)=O)cn2)NC(C)=C(C(=O)OC)C1c1ccccc1Cl (centres unmarked) [Example 35]	5.75
CCOC(=O)C1=C(COCCNc2ccc(S(=O)(=O)N3CCN(C=O)CC3)cn2)NC(C)=C(C(=O)OC)C1c1ccccc1Cl (centres unmarked) [Example 36]	3.16
CCOC(=O)C1=C(COCCNC2=NCC(=O)N2)NC(C)=C(C(=O)OC)C1c1cccc(Cl)c1Cl (centres unmarked) [Example 37]	10
CCOC(=O)C1=C(COCCNc2ccnc(N)n2)NC(C)=C(C(=O)OC)C1c1cccc(Cl)c1Cl (centres unmarked) [Example 40]	2.23
CCOC(=O)C1=C(COCCNc2cc(=O)[nH]cn2)NC(C)=C(C(=O)OC)C1c1cccc(Cl)c1Cl (centres unmarked) [Example 41]	0.776
CCOC(=O)C1=C(COCCNc2nc(-c3ccccc3)cc(=O)[nH]2)NC(C)=C(C(=O)OC)C1c1cccc(Cl)c1Cl (centres unmarked) [Example 43]	8.31
CCOC(=O)C1=C(COCCNc2nc(-c3ccccn3)cc(=O)[nH]2)NC(C)=C(C(=O)OC)C1c1cccc(Cl)c1Cl (centres unmarked) [Example 44]	15.8
CCOC(=O)C1=C(COCCNc2ccc(S(=O)(=O)N3CCCCC3)cn2)NC(C)=C(C(=O)OC)C1c1cccc(Cl)c1Cl (centres unmarked) [Example 46]	3.01
CCOC(=O)C1=C(COCCNc2ccc(S(=O)(=O)N(C)C)cn2)NC(C)=C(C(=O)OC)C1c1cccc(Cl)c1Cl (centres unmarked) [Example 47]	1.25
CCOC(=O)C1=C(COCCNc2nc(N)c3cc(OC)c(OC)cc3n2)NC(C)=C(C(=O)OC)C1c1cccc(Cl)c1Cl (centres unmarked) [Example 48]	29.5
CCOC(=O)C1=C(COCCNc2nc3ccccc3nc2Cl)NC(C)=C(C(=O)OC)C1c1cccc(Cl)c1Cl (centres unmarked) [Example 49]	3.98
CCOC(=O)C1=C(COCCNc2c[n+]([O-])ccn2)NC(C)=C(C(=O)OC)C1c1cccc(Cl)c1Cl (centres unmarked) [Example 50, N-oxide of 4-(2,3-dichlorophenyl)-3-ethoxycarbonyl-5-methoxycarbonyl-6-methyl-2-[2-(pyrazin-2-ylamino)ethoxymethyl]-1,4-dihydropyridine]	1.34
CCOC(=O)C1=C(COCCNc2cncc(Cl)n2)NC(C)=C(C(=O)OC)C1c1cccc(Cl)c1Cl (centres unmarked) [Example 52]	6.02
CCOC(=O)C1=C(COCCNc2cc(OC)ncn2)NC(C)=C(C(=O)OC)C1c1cccc(Cl)c1Cl (centres unmarked) [Example 54]	1.2
CCOC(=O)C1=C(COCCNc2cc(=O)[nH]cn2)NC(C)=C(C(=O)OC)C1c1cccc(C(F)(F)F)c1Cl (centres unmarked) [Example 60]	44.7
CCOC(=O)C1=C(COCCNc2nc(C)cc(=O)[nH]2)NC(C)=C(C(=O)OC)C1c1cccc(C(F)(F)F)c1Cl (centres unmarked) [Example 61]	2.24
CCOC(=O)C1=C(COCCNc2cc[nH]c(=O)n2)NC(C)=C(C(=O)OC)C1c1cccc(C(F)(F)F)c1Cl (centres unmarked) [Example 62]	1.35

The remaining lines, values ahead:

IC50 [nM]	SMILES
3.47	CCOC(=O)C1=C(COCCNc2noc(N)n2)NC(C)=C(C(=O)OC)C1c1cccc(C(F)(F)F)c1Cl (centres unmarked) [Example 7]
1.9	CCOC(=O)C1=C(COCCNc2ccncn2)NC(C)=C(C(=O)OC)C1c1ccccc1Cl (centres unmarked) [Example 10]
6.3	CCOC(=O)C1=C(COCCNc2ccnc(N)n2)NC(C)=C(C(=O)OC)C1c1ccccc1Cl (centres unmarked) [Example 13]
50.1	CCOC(=O)C1=C(COCCNc2cc(=O)n(C)c(=O)n2C)NC(C)=C(C(=O)OC)C1c1ccccc1Cl (centres unmarked) [Example 15]
45.7	CCOC(=O)C1=C(COCCNc2ncccc2C(N)=O)NC(C)=C(C(=O)OC)C1c1ccccc1Cl (centres unmarked) [Example 25]
3.71	CCOC(=O)C1=C(COCCNc2ncc(S(=O)(=O)N(C)C)s2)NC(C)=C(C(=O)OC)C1c1ccccc1Cl (centres unmarked) [Example 26]
13.1	CCOC(=O)C1=C(COCCNc2nccc(C#N)n2)NC(C)=C(C(=O)OC)C1c1ccccc1Cl (centres unmarked) [Example 28]
2.34	CCOC(=O)C1=C(COCCNc2cc(=O)n(C)cn2)NC(C)=C(C(=O)OC)C1c1ccccc1Cl (centres unmarked) [Example 30]
17.7	CCOC(=O)C1=C(COCCNc2cc(Cl)ncn2)NC(C)=C(C(=O)OC)C1c1ccccc1Cl (centres unmarked) [Example 31]
6.3	CCOC(=O)C1=C(COCCNc2cncc(Cl)n2)NC(C)=C(C(=O)OC)C1c1ccccc1Cl (centres unmarked) [Example 33]
13.1	CCOC(=O)C1=C(COCCNc2nc(N)c3cc(OC)c(OC)cc3n2)NC(C)=C(C(=O)OC)C1c1ccccc1Cl (centres unmarked) [Example 34]
25.1	CCOC(=O)C1=C(COCCNC2=NC(C)(C)C(=O)N2)NC(C)=C(C(=O)OC)C1c1cccc(Cl)c1Cl (centres unmarked) [Example 38]
2.69	CCOC(=O)C1=C(COCCNc2nccc(=O)[nH]2)NC(C)=C(C(=O)OC)C1c1cccc(Cl)c1Cl (centres unmarked) [Example 39]
4.16	CCOC(=O)C1=C(COCCNc2nc(C)cc(=O)[nH]2)NC(C)=C(C(=O)OC)C1c1cccc(Cl)c1Cl (centres unmarked) [Example 42]
1.09	CCOC(=O)C1=C(COCCNc2ccc(S(=O)(=O)N3CCOCC3)cn2)NC(C)=C(C(=O)OC)C1c1cccc(Cl)c1Cl (centres unmarked) [Example 45]
2.51	CCOC(=O)C1=C(COCCNc2nccnc2Cl)NC(C)=C(C(=O)OC)C1c1cccc(Cl)c1Cl (centres unmarked) [Example 51]
3160	CCOC(=O)C1=C(COCCNc2cc(Cl)ncn2)NC(C)=C(C(=O)OC)C1c1cccc(Cl)c1Cl (centres unmarked) [Example 53]
3.72	CCOC(=O)C1=C(COCCNc2nccc(=O)[nH]2)NC(C)=C(C(=O)OC)C1c1cccc(C(F)(F)F)c1Cl (centres unmarked) [Example 59]
2.95	CCOC(=O)C1=C(COCCNc2ccc(C(N)=O)cn2)NC(C)=C(C(=O)OC)C1c1cccc(C(F)(F)F)c1Cl (centres unmarked) [Example 63]
